Measurements taken from PubChem BioAssay (NCI).
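Growth conditions: 96-well plates. Treatment: test compound, 48 hours, 5 concentrations. Analysis: linear interpolation between bracketing concentrations; unreached endpoints set to highest concentration. GI50 marks 50% less growth. TGI marks complete inhibition of growth.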

Tests used:
Assay in all cases: NCI anticancer screen, dose series, 48 h
[1] = system: OVCAR-4 ovarian
[2] = system: HCT-116 colon
[3] = system: EKVX NSCLC
[4] = system: HL-60(TB) leukemia
[5] = system: RXF 393 renal
[6] = system: UACC-62 melanoma
[7] = system: MCF7 breast
[8] = system: NCI/ADR-RES ovarian
[9] = system: MOLT-4 leukemia
[10] = system: UO-31 renal
[11] = system: SR leukemia

SMILES | TGI [1] [µM] | TGI [2] [µM] | TGI [3] [µM] | TGI [4] [µM] | TGI [5] [µM] | TGI [6] [µM] | TGI [7] [µM] | TGI [8] [µM] | TGI [9] [µM] | TGI [10] [µM] | TGI [11] [µM] | GI50 [1] [µM] | GI50 [3] [µM] | GI50 [4] [µM] | GI50 [5] [µM] | GI50 [6] [µM] | GI50 [7] [µM] | GI50 [8] [µM] | GI50 [10] [µM]
COc1ccccc1NC(=S)Nc1cc(C)cc(C)n1 | > 100 | > 100 | > 100 | > 100 | > 100 | > 100 | > 100 | > 100 | > 100 | > 100 |  |  |  |  |  |  |  |  | 
O=C(O)C1CCCN(CCc2c[nH]c3ccccc23)C1 (stereo not given) | > 100 | > 100 | > 100 | > 100 | > 100 | > 100 | > 100 | > 100 | > 100 |  |  |  |  |  |  |  |  |  | 
CCOC(=O)c1c(NC(=O)c2cccs2)sc2c1CCC2 |  | > 100 | > 100 | > 100 | > 100 | > 100 | > 100 | > 100 | > 100 | > 100 | > 100 |  |  |  |  |  |  |  | 
CO/C(N)=C(\C#N)N=Cc1ccco1 | > 100 | > 100 | > 100 | > 100 | > 100 | > 100 | > 100 | > 100 | > 100 | > 100 |  |  |  |  |  |  |  |  | 
O=C1N=C(SC2OC(CO)C(O)C(O)C2O)S/C1=C\c1ccccc1 (stereo not given) |  |  |  | > 100 | > 100 | > 100 | > 100 | > 100 | > 100 | > 100 | > 100 |  |  |  |  |  |  |  | 
CN(C)/N=C(/CC(O)(C(F)(F)F)C(F)(F)F)c1ccc([N+](=O)[O-])cc1 | > 100 | > 100 | > 100 | > 100 | > 100 | > 100 |  | > 100 | > 100 | > 100 | > 100 |  |  |  |  |  |  |  | 
O=c1[nH]nc(-c2ccccc2)n1-c1ccncc1 | > 100 | > 100 | > 100 | > 100 | > 100 |  | > 100 | > 100 | > 100 | > 100 | > 100 |  |  |  |  |  |  |  | 
Cc1ccc(S(=O)(=O)c2ccsc2NC(=O)C(F)(F)F)cc1 | > 100 | 95.3 | > 100 |  |  | > 100 | > 100 | > 100 | 45.9 | 96.1 |  |  |  |  |  |  |  |  | 
O=C(O)COCC(=O)N(CCOCCN(Cc1ccccc1)C(=O)COCC(=O)O)Cc1ccccc1 |  | > 100 | > 100 | > 100 | > 100 | > 100 | > 100 | > 100 | > 100 |  | > 100 |  |  |  |  |  |  |  | 
COc1ccc2c(c1)C(=O)Cc1ccccc1CC2 | > 100 | > 100 | > 100 | > 100 | > 100 | > 100 |  |  | > 100 | > 100 | > 100 |  |  |  |  |  |  |  | 
CCC(C)(C)C1CCC2c3c([nH]c4ccccc34)C3C(=O)N(c4ccc(OC)cc4)C(=O)C3C2C1 (stereo not given) | > 100 | 37.2 | > 100 |  | > 100 | > 100 | 22.6 | 44.4 | 60.8 | > 100 | 75.3 |  |  |  |  |  |  |  | 
COc1cc(/C=N\N(C)C)cc(/C=N/N(C)C)c1O | > 100 | > 100 |  | > 100 | > 100 | > 100 | > 100 | > 100 |  | 79.5 | 32.3 |  |  |  |  |  |  |  | 
CN1CCN(c2ccc3[nH]c(-c4cc(O)c5c(nc(CO)n5C)c4O)nc3n2)CC1 | > 100 | > 100 | 85.8 | 47.2 | > 100 | 27.8 |  | > 100 | 48.2 | > 100 |  |  |  |  |  |  |  |  | 
CC(=O)c1sc2c(c1OC(=O)c1ccco1)c(=O)n(-c1ccccc1)c(=S)n2-c1ccccc1 | 95 | 41.1 | 59.1 | 45 | 28.2 |  | 55.4 | 51.2 | 53.8 | 49.3 | 72.2 |  |  |  |  |  |  |  | 
CC(=N)OC1CC2CCC1(C)C2(C)C (stereo not given) | > 100 | > 100 | > 100 | > 100 | > 100 | > 100 | > 100 |  | > 100 | > 100 | > 100 |  |  |  |  |  |  |  | 
OCCCNc1nc(=S)[nH]c2[nH]ncc12 | > 100 |  | > 100 | > 100 | > 100 | > 100 | 81.3 | > 100 |  | > 100 |  | 53.7 | 50.7 | > 100 | 44.3 | 30 | 29.8 | > 100 | 44.1
C[N+](C)(C)CCCSc1nc2ccccc2[nH]1 | > 100 | > 100 | > 100 | > 100 | > 100 | > 100 | > 100 | > 100 | > 100 | > 100 |  |  |  |  |  |  |  |  | 
O=c1[nH]c(=O)n(CCOc2ccccc2)cc1Nc1ccccc1 |  | > 100 | > 100 |  | > 100 | > 100 | > 100 | > 100 | > 100 | > 100 | > 100 |  |  |  |  |  |  |  | 
C/C(Cl)=N/OC(=O)Nc1ccc(S(N)(=O)=O)c(C)c1 | 29.3 | 25 | 13 | 3.05 | 31.9 | 35.6 | 29.1 | > 55.5 | 6.12 | 28.1 |  |  |  |  |  |  |  |  | 
COc1ccc2c(c1)-c1nc(=S)n(CCCN(C)C)c3ccc([N+](=O)[O-])c(c13)N2 | 2.52 | 2.93 | 14.5 | 1.64 | 1.87 | 25.9 | 3.01 | 9.23 | 2.15 | 1.82 |  |  |  |  |  |  |  |  | 
c1ccc2c(c1)CC1=C(O2)c2ccccc2OC1 | 88.2 | 30.6 | 45.7 |  |  | 92.8 | > 100 | > 100 | 80.1 | > 100 | > 100 |  |  |  |  |  |  |  | 
